# Laboratory results reported in US9644083B2, “Cellulose acylate film, polarizing plate protective film, polarizing plate and liquid crystal display using the same” (FUJIFILM Corporation, priority 2014, dated 2017).
# Assay: acid dissociation constant pKa by alkali titration method
# Assay type: physicochemical
# Conditions: 25° C., mixed solvent tetrahydrofuran 60 ml/water 40 ml
# Procedure: The cellulose acylate film of the present invention contains at least two chelating agents. One of the two chelating agents is a chelating agent having a […] pKa and, in the present invention, such is a chelating agent (chelating agent A) having at least one functional group whose acid dissociation constant pKa measured at 25° C. in a mixed solvent having a mixing ratio of tetrahydrofuran 60 ml/water 40 ml is 6 or less.
# The acid dissociation constant pKa can be measured in accordance with an alkali titration method described in Experimental Chemistry Course, 2nd Ed., pp. 215-217, published by MARUZEN PUBLISHING CO., LTD.
# At least one residual chelating agent of the at least two chelating agents which the cellulose acylate film of the present invention contains, is a chelating agent B having at least one functional group of a conjugate acid, whose pKa measured at 25° C. in a mixed solvent having a mixing ratio of tetrahydrofuran 60 ml/water 40 ml, is 7 or more.
row,Chelating agent A pKa of acidic group,Structure (SMILES)
1,6.0,CCCCCCCCCCCCCCCC(=O)OC[C@H](O)[C@H]1OC(=O)C(O)=C1O [L-ascorbic acid palmitic acid ester]
2,Less than 3,"O=P(O)(O)CN(CCN(CP(=O)(O)O)CP(=O)(O)O)CP(=O)(O)O [PH-540, Ethylenediamine N,N,N′,N′-tetrakis(methylenephosphonic acid)]"
3,3.6,O=C(O)CN(CCN(CC(=O)O)CC(=O)O)CCN(CC(=O)O)CC(=O)O [diethylenetriaminepentaacetic acid]

# Same assay, conditions: pKa of conjugate acid; 25° C., mixed solvent tetrahydrofuran 60 ml/water 40 ml; read-out: Chelating agent B pKa of basic group
row,pKa,Structure (SMILES)
1,14,ONc1nc(NC2CCCCC2)nc(NC2CCCCC2)n1 [Chelating agent D]
2,8.4,"CC(O)CN(CCN(CC(C)O)CC(C)O)CCN(CC(C)O)CC(C)O (stereo not drawn) [N,N,N′,N″,N″-pentakis(2-hydroxypropyl)diethylenetriamine]"
3,8.9,NCCNCCNCCN [triethylenetetramine]
